Residues, ends and D or L forms follow the SMILES beside them. *: point of attachment. FITC = O=C1OC2(c3ccc(O)cc3Oc3cc(O)ccc32)c2ccc(NC(=S)*)cc21
Key:
wild‐type mice [1] = assay: Lactate levels in BAT and serum; type: in vivo, wild‐type C57BL/6J mice; details: GPCBi 5.5 mg kg^−1 in BAT, 23 °C for 7 days then 10 °C for 2 days
Experimental: The mouse experiments were approved by the Institutional Animal Care and Use Committee of the Institute of Model Animals of Tongji Hospital, Huazhong University of Science and Technology, and were performed in compliance with all relevant ethical regulations (approval number: TJH‐202110044). Unless otherwise noted, the mice were housed in a pathogen‐free and climate‐controlled environment (22–25 °C, 40‐60% humidity) and were given free access to food and water on a 12 h light/dark cycle. Wild‐type C57BL/6J mice were obtained from Beijing Huafukang Bioscience Co., Ltd. (Beijing, China). Gabpa ^flox/flox , Adipoq^Cre , and Ucp1^Cre mice were purchased from Cyagen Biosciences, Inc. (Guangzhou, China). For GPCBi treatment, wild‐type mice were orthotopically injected GPCBi (FITC‐[…]; 5.5 mg kg^−1) or scramble peptide (FITC‐[…]; 5.5 mg kg^−1) into the BAT at room temperature for one week. […] For cold exposure, the mice were caged individually and exposed to a temperature of 10 or 4 °C. The mice were euthanized by CO2 inhalation. […] Body weight was measured every week, and tissue weights were measured at the time of euthanasia. […]

wild‐type mice [2] = assay: Oxygen consumption and heat production (CLAMS); type: in vivo, wild‐type C57BL/6J mice; details: GPCBi‐injected mice, room temperature, n = 4 (Figure 4n,o; Figure S4i,j)
Experimental: The mouse experiments were approved by the Institutional Animal Care and Use Committee of the Institute of Model Animals of Tongji Hospital, Huazhong University of Science and Technology, and were performed in compliance with all relevant ethical regulations (approval number: TJH‐202110044). Unless otherwise noted, the mice were housed in a pathogen‐free and climate‐controlled environment (22–25 °C, 40‐60% humidity) and were given free access to food and water on a 12 h light/dark cycle. Wild‐type C57BL/6J mice were obtained from Beijing Huafukang Bioscience Co., Ltd. (Beijing, China). Gabpa ^flox/flox , Adipoq^Cre , and Ucp1^Cre mice were purchased from Cyagen Biosciences, Inc. (Guangzhou, China). For GPCBi treatment, wild‐type mice were orthotopically injected GPCBi (FITC‐[…]; 5.5 mg kg^−1) or scramble peptide (FITC‐[…]; 5.5 mg kg^−1) into the BAT at room temperature for one week. […] Body weight was measured every week, and tissue weights were measured at the time of euthanasia.
Three‐month‐old mice (Gabpα ^Ucp1 KO, Gabpα ^Adipo KI, peptide GPCBi, and respective littermate control mice) were subjected to whole‐body energy expenditure measurements in metabolic chambers. Oxygen consumption and heat production were monitored via a Comprehensive Laboratory Animal Monitoring System (CLAMS, Columbus Instruments) at specific temperatures. […]

BAT from wild‐type mice = assay: H&E staining and Ucp1 immunostaining of BAT; type: in vivo, wild‐type C57BL/6J mice; details: GPCBi 5.5 mg kg^−1 orthotopically into BAT
Experimental: The mouse experiments were approved by the Institutional Animal Care and Use Committee of the Institute of Model Animals of Tongji Hospital, Huazhong University of Science and Technology, and were performed in compliance with all relevant ethical regulations (approval number: TJH‐202110044). Unless otherwise noted, the mice were housed in a pathogen‐free and climate‐controlled environment (22–25 °C, 40‐60% humidity) and were given free access to food and water on a 12 h light/dark cycle. Wild‐type C57BL/6J mice were obtained from Beijing Huafukang Bioscience Co., Ltd. (Beijing, China). Gabpa ^flox/flox , Adipoq^Cre , and Ucp1^Cre mice were purchased from Cyagen Biosciences, Inc. (Guangzhou, China). For GPCBi treatment, wild‐type mice were orthotopically injected GPCBi (FITC‐[…]; 5.5 mg kg^−1) or scramble peptide (FITC‐[…]; 5.5 mg kg^−1) into the BAT at room temperature for one week. […] For cold exposure, the mice were caged individually and exposed to a temperature of 10 or 4 °C. The mice were euthanized by CO2 inhalation. For studies with specific diets, five‐week‐old male Gabpα ^Adipo KI mice and their respective littermate control mice were fed a HFD (D12492, Research Diets; 60 kcal% fat, 20 kcal% carbohydrates, and 20 kcal% protein; Medicience Ltd., Jiangsu, China) at ambient temperature. The food was changed every week. Body weight was measured every week, and tissue weights were measured at the time of euthanasia.
For haematoxylin and eosin (H&E) staining, adipose tissues and the liver were fixed in 4% paraformaldehyde overnight at 4 °C and then dehydrated in 70% ethanol. The tissues were subsequently embedded in paraffin, sectioned at a thickness of 5 µm, and stained with H&E or immunostained with a Ucp1 antibody (Abcam, UK, Cat# ab234430, 1:500 dilution) following the standard protocol. For Oil Red O staining, frozen liver sections were stained with Oil Red O solution for 10 min and then counterstained with haematoxylin for 20 s. Images of the tissue samples were captured via an Olympus BX53 Orthomicroscope. […]

[3] = system: differentiated iBAT‐SVF cells; assay: Relative mRNA and protein levels in differentiated iBAT-SVF cells; type: cell-based, C57BL/6 mice; details: GPCBi 5 µM
Experimental: Interscapular BAT‐SVF cells were obtained from eight‐week‐old male C57BL/6 mice. […] The tissue homogenates were filtered through a 70 µm cell strainer and centrifuged at 1000 rpm for 5 min. The cell pellet was resuspended in DMEM supplemented with 10% FBS (Sigma–Aldrich) and 1% penicillin/streptomycin (P/S) at 37 °C with 5% CO2. The next day, BAT‐SVF cells were immortalized with the SV40 large T antigen according to a published protocol.^[ [32] ^] […] After 48 h, the induction medium was replaced with a maintenance cocktail (5 µg mL^−1 insulin, 1 nM triiodo‐L‐thyronine, and 1 µM rosiglitazone) until 6 to 8 days after the induction of differentiation.
Reverse transcription of cDNA was completed via the use of 1 µg of RNA with HiScript II Q RT SuperMix for real‐time quantitative PCR (qPCR) (Vazyme Biotech, Nanjing, China, Cat# R222) according to the provided protocols. qPCR was performed with a real‐time PCR system on a QuantStudio1 (Applied Biosystems) using Taq Pro Universal SYBR qPCR Master Mix (Vazyme Biotech., Nanjing, China, Cat# Q712‐02). Relative transcript levels were calculated via the comparative C T method; 36b4 was used as the internal control for cells, whereas Hprt was used as the internal control for tissues. The primer sequences are listed in Table S1 (Supporting Information). The mRNAs from the BAT of control and Gabpα ^Ucp1 KO mice were extracted and subjected to commercial RNA‐seq (BGI Genomics Co., Ltd.) for further DEG and KEGG pathway enrichment analysis. In detail, RNA quality was examined with Fragment (Agilent). High‐quality RNA (RIN > 8.0) was used to library construction. RNA‐seq was performed at BGI Genomics (China) using the Illumina NovaSeq 6000 platform. Clean reads were aligned to the mouse reference genome (GRCm39) using Bowtie2, and transcript quantification was performed with RSEM. […] The RNA‐seq data generated in this study have been deposited in the National Center for Biotechnology Information Sequence Read Archive database under accession code PRJNA1358056.
Cells and tissues were lysed in RIPA lysis buffer (Beyotime, Shanghai, China, Cat# P0013B) containing a protease inhibitor cocktail (MedChem Express, NJ, USA, Cat# HY‐K0010) according to the manufacturer's protocol. Equal amounts of protein were separated on SDS‒PAGE gels and transferred to PVDF membranes (Millipore). The PVDF membranes were blocked in 5% skim milk for 1 h at room temperature and then incubated with primary antibody overnight at 4 °C. The membranes were washed three times with TBST and then incubated with HRP‐conjugated secondary antibodies for 1 h at room temperature. After washing three times, the Western blots were imaged via an enhanced chemiluminescence system.

In the case of `CC[C@H](C)[C@H](NC(=O)[C@H](CCCNC(=N)N)NC(=O)[C@H](CS)NC(=O)[C@H](CC(N)=O)NC(=O)[C@H](CC(C)C)NC(=O)[C@H](CC(=O)O)NC(=O)[C@H](CS)NC(=O)[C@H](CCCNC(=N)N)NC(=O)[C@H](CC(=O)O)NC(=O)[C@H](Cc1ccc(O)cc1)NC(=O)[C@@H](NC(=O)[C@H](CC(C)C)NC(=O)[C@H](CCCCN)NC(=O)[C@H](CC(C)C)NC(=O)[C@H](CCCNC(=N)N)NC(=O)[C@@H](NC(=O)[C@@H](NC(=O)[C@H](CCCNC(=N)N)NC(=O)[C@H](CCCNC(=N)N)NC(=O)[C@H](CCCNC(=N)N)NC(=O)[C@H](CCCNC(=N)N)NC(=O)[C@H](CCCNC(=N)N)NC(=O)[C@H](CCC(N)=O)NC(=O)[C@H](CCCNC(=N)N)NC(=O)[C@H](CCCNC(=N)N)NC(=O)[C@H](CCCCN)NC(=O)[C@H](CCCCN)NC(=O)[C@H](CCCNC(=N)N)NC(=O)CNC(=O)[C@H](Cc1ccc(O)cc1)NC(=S)Nc1ccc2c(c1)C(=O)OC21c2ccc(O)cc2Oc2cc(O)ccc21)[C@@H](C)O)[C@@H](C)CC)[C@@H](C)CC)C(=O)N[C@@H](Cc1c[nH]cn1)C(=O)N[C@@H](CCCCN)C(=O)N[C@@H](CCCCN)C(=O)N[C@@H](CO)C(=O)N[C@@H](CCCNC(=N)N)C(=O)N[C@@H](CC(N)=O)C(=O)N[C@@H](CCCCN)C(=O)O` [GPCBi] ({FITC}-YGRKKRRQRRRRRTIRLKLIYDRCDLNCRIHKKSRNK-OH; N-terminus and C-terminus assumed), the “production of lactate in brown fat” value (wild‐type mice [1]; n = 3 (Figure 5c)) is reported as “substantially suppressed”, the “lactate in circulation (serum)” value (wild‐type mice [1]; n = 3 (Figure 5d)) is reported as “substantially suppressed” and the “oxygen consumption and heat production” value (wild‐type mice [2]) is reported as “significant decreases”. For the same compound, the “lipid accumulation in BAT” value (BAT from wild‐type mice; H&E, 7 days (Figure 4i,j)) was “increased lipid accumulation”, the “Ucp1 abundance in BAT” value (BAT from wild‐type mice; Ucp1 immunostaining, 7 days (Figure 4i,k)) was “decreased Ucp1 abundance” and the “expression of glycolytic and thermogenic genes” value ([3]; first 2 days of adipogenic differentiation (Figure 4e,f), mRNA n = 3) was “decreased the expression of glycolytic and thermogenic genes”. The “expression of adipogenic gene Adipoq” value ([3]; first 2 days of adipogenic differentiation (Figure 4e,f), n = 3) was “did not change”, the “expression of Ldh and Ucp1 in brown adipocytes” value ([3]; first 2 days of adipogenic differentiation (Figure 5m)) was “lower expression” and the “regulatory gene expression of the futile lipid cycle, differentiated iBAT‐SVF cells” value ([3]; first 2 days of adipogenic differentiation (Figure S5c)) was “substantially impaired”. The “thermogenic gene ucp1 in GPCBi‐treated brown adipocytes” value ([3]; first 2 days of adipogenic differentiation, without Enoblock (Figure 5p)) was “downregulated”.
